# Paper PMC8286840, “Identifying SARS-CoV-2 antiviral compounds by screening for small molecule inhibitors of Nsp3 papain-like protease” (Biochemical Journal, 2021)
# Counter-ions that a name gives are not always drawn. Like-named read-outs stand apart in the source and are kept apart here.
# Assays:
# [1] = biological target: T1, SARS-CoV-2 PLpro (nsp3 1564–1878) (Severe acute respiratory syndrome coronavirus 2, UniProt P0DTD1); experiment: biochemical; set-up: FRET-quenched peptide (Pro3) cleavage by PLpro, 10 min pre-incubation, slope over 20 min, normalised to no-compound control; settings: high concentration screen, read-out: % of control remaining
# [2] = biological target: T1, SARS-CoV-2 PLpro (nsp3 1564–1878); experiment: biochemical; set-up: FRET-quenched peptide (Pro3) cleavage by PLpro, 10 min pre-incubation, slope over 20 min, normalised to no-compound control; settings: low concentration screen, read-out: % of control remaining
smiles,measurement,setting,value
OC[C@H]1O[C@@H](n2cnc3c(NCc4ccco4)ncnc32)[C@H](O)[C@@H]1O [Kinetin riboside],remaining activity at 3.75 µM,[1]; Well no.=6632,96.7%
same,remaining activity at 1.25 µM,[2]; Well no.=6632,91.8%
O=c1cc(O)cc(/C=C/c2ccc(O)c(O)c2)o1 [Hispidin],remaining activity at 3.75 µM,[1]; Well no.=754,96.8%
same,remaining activity at 1.25 µM,[2]; Well no.=754,98.7%
COc1cccc2c1C(=O)c1c(O)c3c(c(O)c1C2=O)C[C@@](O)(C(C)=O)C[C@@H]3O[C@H]1C[C@H](N)[C@H](O)[C@H](C)O1 [Daunorubicin hydrochloride],remaining activity at 3.75 µM,[1]; Well no.=728,94.8%
same,remaining activity at 1.25 µM,[2]; Well no.=728,94%
O=C(CCCCCCC(=O)Nc1ccccc1)NO [Vorinostat (SAHA)],remaining activity at 3.75 µM,[1]; Well no.=1866,82.8%
same,remaining activity at 1.25 µM,[2]; Well no.=1866,87.6%
N#Cc1c(NC(=O)c2cccc3ccccc23)sc2c1CCCC2 [JNK Inhibitor IX],remaining activity at 3.75 µM,[1]; Well no.=2518,103%
same,remaining activity at 1.25 µM,[2]; Well no.=2518,99.9%
C[Se]C[C@H](N)C(=O)O [Se-(methyl)selenocysteine hydrochloride],remaining activity at 3.75 µM,[1]; Well no.=1124,95.6%
same,remaining activity at 1.25 µM,[2]; Well no.=1124,97.3%
COc1c(C)c2c(c(O)c1C/C=C(\C)CCC(=O)OCCN1CCOCC1)C(=O)OC2 [Mycophenolate mofetil],remaining activity at 3.75 µM,[1]; Well no.=1923,103%
same,remaining activity at 1.25 µM,[2]; Well no.=1923,103%
O=C1N=C(O)NC1(c1ccccc1)c1ccccc1 [Phenytoin sodium],remaining activity at 3.75 µM,[1]; Well no.=403,104%
same,remaining activity at 1.25 µM,[2]; Well no.=403,104%
COc1cc(OCc2cccc(-c3ccccc3)c2C)cc(OC)c1CN1CCCC[C@H]1C(=O)O [BMS-1],remaining activity at 3.75 µM,[1]; Well no.=7780,96.2%
same,remaining activity at 3.75 µM,[1]; Well no.=8163,100%
same,remaining activity at 1.25 µM,[2]; Well no.=7780,98.8%
same,remaining activity at 1.25 µM,[2]; Well no.=8163,105%
O=C(O[C@@H]1Cc2c(O)cc(O)cc2O[C@@H]1c1cc(O)c(O)c(O)c1)c1cc(O)c(O)c(O)c1 [Epigallocatechin gallate],remaining activity at 3.75 µM,[1]; Well no.=3895,101%
same,remaining activity at 1.25 µM,[2]; Well no.=3895,98.4%
C[C@@H]1C[C@H]2O[C@@H]2/C=C\C=C\C(=O)Cc2c(Cl)c(O)cc(O)c2C(=O)O1 [Radicicol],remaining activity at 3.75 µM,[1]; Well no.=3124,98.1%
same,remaining activity at 1.25 µM,[2]; Well no.=3124,95.9%
COc1cccc(CNc2ccc(S(=O)(=O)Nc3nc4ccccc4s3)cc2)c1O [ML355],remaining activity at 3.75 µM,[1]; Well no.=7648,96.7%
same,remaining activity at 1.25 µM,[2]; Well no.=7648,97.9%
CC[C@H](C)[C@@H]1NC(=O)[C@H](Cc2ccc(O)cc2)NC(=O)[C@@H](N)CSSC[C@@H](C(=O)N2CCC[C@H]2C(=O)N[C@@H](CC(C)C)C(=O)NCC(N)=O)NC(=O)[C@H](CC(N)=O)NC(=O)[C@H](CCC(N)=O)NC1=O [Oxytocin (acetate)],remaining activity at 3.75 µM,[1]; Well no.=8107,104%
same,remaining activity at 1.25 µM,[2]; Well no.=8107,107%
Cc1ccccc1N1CCN(CCc2nnc3n2CCCC3)CC1 [Dapiprazole (hydrochloride)],remaining activity at 3.75 µM,[1]; Well no.=6895,100%
same,remaining activity at 1.25 µM,[2]; Well no.=6895,97.8%
O=C1Nc2ccccc2C2(CCN(CCc3ccc(C(F)(F)F)cc3)CC2)O1 [RS102895 (hydrochloride)],remaining activity at 3.75 µM,[1]; Well no.=8003,93.3%
same,remaining activity at 3.75 µM,[1]; Well no.=8275,104%
same,remaining activity at 1.25 µM,[2]; Well no.=8003,98.5%
same,remaining activity at 1.25 µM,[2]; Well no.=8275,106%
O=C(O)CC1CCC2(CC1)CCN(c1cc(OC(F)(F)F)ccc1Cl)CC2 [GPR120-IN-1],remaining activity at 3.75 µM,[1]; Well no.=8485,96.8%
same,remaining activity at 1.25 µM,[2]; Well no.=8485,104%
C=C(c1ccc(C(=O)O)cc1)c1cc2c(cc1C)C(C)(C)CCC2(C)C [Bexarotene],remaining activity at 3.75 µM,[1]; Well no.=1814,94.9%
same,remaining activity at 1.25 µM,[2]; Well no.=1814,93.1%
CC[C@]12CCCN3CCc4c(n(c5ccccc45)C(=O)C1)[C@@H]32 [(-)-Eburnamonine],remaining activity at 3.75 µM,[1]; Well no.=3380,95%
same,remaining activity at 1.25 µM,[2]; Well no.=3380,96.6%
O=c1ccn([C@@H]2O[C@H](CO)[C@@H](O)[C@H]2O)c(=O)[nH]1 [Uridine],remaining activity at 3.75 µM,[1]; Well no.=4716,104%
same,remaining activity at 1.25 µM,[2]; Well no.=4716,103%
NC(=O)Nc1cc(-c2cccc(F)c2)sc1C(=O)N[C@H]1CCCNC1 [AZD7762],remaining activity at 3.75 µM,[1]; Well no.=2691,95%
same,remaining activity at 1.25 µM,[2]; Well no.=2691,94.4%
C[C@H]([C@H](O)CCC(C)(C)O)[C@H]1CC[C@@]2(O)C3=CC(=O)[C@@H]4C[C@@H](O)[C@@H](O)C[C@]4(C)[C@H]3CC[C@]12C [Ecdysone],remaining activity at 3.75 µM,[1]; Well no.=3643,102%
same,remaining activity at 1.25 µM,[2]; Well no.=3643,104%
O=C1c2c(O)cc(O)cc2O[C@H](c2ccc(O)c(O)c2)[C@H]1O (racemic),remaining activity at 3.75 µM,[1]; Well no.=1527,96.7%
same,remaining activity at 1.25 µM,[2]; Well no.=1527,95.9%
COc1nc(C)nc(Cl)c1NC1=NCCN1 [Moxonidine],remaining activity at 3.75 µM,[1]; Well no.=4724,92.3%
same,remaining activity at 1.25 µM,[2]; Well no.=4724,98.7%
same,remaining activity at 1.25 µM,[2]; Well no.=7423,106%
CCN(CC)CCCCN1c2ccccc2Oc2ccc(Cl)cc21 [Akt Inhibitor X],remaining activity at 3.75 µM,[1]; Well no.=2317,102%
same,remaining activity at 1.25 µM,[2]; Well no.=2317,101%
Cc1cnc(CNC(=O)c2c(=O)c3ccc(N4CCCN(C)CC4)nc3n3c2sc2ccccc23)cn1 [CX-5461],remaining activity at 3.75 µM,[1]; Well no.=5340,102%
same,remaining activity at 1.25 µM,[2]; Well no.=5340,99.1%
"COc1cc(Br)c(S(=O)(=O)Nc2ccc(Cl)c(O[C@@H]3CCN(C)C3)c2)cc1OC [2-bromo-N-(4-chloro-3-{[(3R)-1-methyl-3-pyrrolidinyl]oxy}phenyl)-4,5-dimethoxybenzenesulfonamide]",remaining activity at 3.75 µM,[1]; Well no.=5501,105%
same,remaining activity at 1.25 µM,[2]; Well no.=5501,99.8%
NC12CC3CC(CC(C3)C1)C2 [Amantadine hydrochloride],remaining activity at 3.75 µM,[1]; Well no.=9,103%
same,remaining activity at 1.25 µM,[2]; Well no.=9,104%
"C#CCn1c(=O)c2c(ncn2C)n(C)c1=O [3,7-Dimethyl-I-propargylxanthine]",remaining activity at 3.75 µM,[1]; Well no.=498,97.4%
same,remaining activity at 1.25 µM,[2]; Well no.=498,99.2%
CN1CCN(c2ccc([N+](=O)[O-])c3no[n+]([O-])c23)CC1 [NSC-207895 (XI-006)],remaining activity at 3.75 µM,[1]; Well no.=4647,95.2%
same,remaining activity at 1.25 µM,[2]; Well no.=4647,101%
C[C@]12CCC(=O)C=C1CC[C@@H]1[C@@H]2[C@@H](O)C[C@@]2(C)[C@H]1CC[C@]2(O)C(=O)COC(=O)CCC(=O)O [Hydrocortisone 21-hemisuccinate sodium],remaining activity at 3.75 µM,[1]; Well no.=704,93.3%
same,remaining activity at 1.25 µM,[2]; Well no.=704,92.7%
CCCCCN(C)CCC(O)(P(=O)(O)O)P(=O)(O)O [Ibandronate sodium salt],remaining activity at 3.75 µM,[1]; Well no.=6031,91.1%
same,remaining activity at 1.25 µM,[2]; Well no.=6031,96.1%
CC1(C)S[C@@H]2[C@H](NC(=O)[C@H](N)c3ccc(O)cc3)C(=O)N2[C@H]1C(=O)O [Amoxicillin (trihydrate)],remaining activity at 3.75 µM,[1]; Well no.=8222,96.8%
same,remaining activity at 1.25 µM,[2]; Well no.=8222,99.5%
CNc1cc2c(Nc3cccc(Br)c3)ncnc2cn1 [PD 158780],remaining activity at 3.75 µM,[1]; Well no.=2499,99.3%
same,remaining activity at 1.25 µM,[2]; Well no.=2499,99.1%
